Earlier results in US20090012008A1, “Pharmaceutical Composition for Photodynamic Therapy and a Method for Treating Oncological Diseases by Using Said Composition” (priority 2005, published 2009).

Key:
[1] = tested on: tumor cells of the HeLa S3 line; settings: HeLa S3, in vitro

Compound	effect on viability and proliferation rate (keratinocytes)	effect on viability and proliferation rate (fibroblasts)	cytotoxic activity [1]
c12c3c4c5c1c1c6c7c2c2c8c3c3c9c4c4c%10c5c5c1c1c6c6c%11c7c2c2c7c8c3c3c8c9c4c4c9c%10c5c5c1c1c6c6c%11c2c2c7c3c3c8c4c4c9c5c1c1c6c2c3c41 [fullerene C60]	no effect	no effect	
fullerocyclopentane			manifest only upon irradiation with light
